Data on 7 molecules can be found in PubChem BioAssay (NCI).

Among the test systems are IGROV1 ovarian; LOX IMVI melanoma; OVCAR-5 ovarian; MDA-MB-231 breast; MDA-MB-435; NCI-H226 lung; SN12C renal; MOLT-4 leukemia; MDA-N; SR leukemia.
Holding throughout (assay): NCI tumour cell line growth inhibition, 48 h

Each structure is given as a SMILES string.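 Where inhibition never reached the appropriate level, the endpoint shown equals the highest concentration tested. Otherwise, values were interpolated linearly from a five-concentration, 48-hour dose response in 96-well plates. TGI denotes the concentration required for complete inhibition of growth.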 Where a SMILES comes first, the peptide text is derived from it. [ ]: non-standard residue; d: D form. The star is where a group is joined. Phe(4-NO2) = N[CH](Cc1ccc([N+](=O)[O-])cc1)C(=O)O; Boc = CC(C)(C)OC(=O)*; OBn = c1ccc(CO*)cc1

On to `Oc1ccc(/C=C\c2nnc(/C=C\c3ccc(O)c(O)c3)s2)cc1O`, for which the TGI with IGROV1 ovarian was 20.7 µM; in the assay on LOX IMVI melanoma, above 55.2 µM; with OVCAR-5 ovarian, above 86.5 µM; with MDA-MB-231 breast it was 56.2 µM; in the assay on MDA-MB-435, 15.1 µM; in the assay with NCI-H226 lung, 20 µM. The TGI in the assay with SN12C renal was 24 µM; with MOLT-4 leukemia, 11.7 µM; in the assay with MDA-N, 20.8 µM; in the assay with SR leukemia, 5.22 µM.
On to `CCC(C)[C@H](NC(=O)N[C@H](C)c1ccccc1)C(=O)OC` (stereo not given in full), for which the TGI in the assay on IGROV1 ovarian, in the assay on LOX IMVI melanoma, with OVCAR-5 ovarian, with MDA-MB-231 breast, with MDA-MB-435 and with NCI-H226 lung was above 100 µM throughout. Also, the TGI in the assay with SN12C renal, in the assay with MOLT-4 leukemia, with MDA-N and in the assay on SR leukemia was above 100 µM throughout.
Turning to `N=C(N)SCCON1C(=O)c2ccccc2C1=O`, the TGI with IGROV1 ovarian, with LOX IMVI melanoma, in the assay with OVCAR-5 ovarian, with MDA-MB-231 breast, in the assay on MDA-MB-435 and in the assay with NCI-H226 lung was above 100 µM each time. Moreover, the TGI in the assay on SN12C renal, in the assay on MOLT-4 leukemia, with MDA-N and with SR leukemia was above 100 µM each time.
With `COc1ccc(N2C=Nn3c(nc4sc(C)c(C)c4c3=O)C2)cc1`, the TGI in the assay with IGROV1 ovarian, with LOX IMVI melanoma, with OVCAR-5 ovarian, in the assay with MDA-MB-231 breast, in the assay with MDA-MB-435 and in the assay on NCI-H226 lung was above 100 µM each time. The TGI in the assay on SN12C renal, with MOLT-4 leukemia, in the assay on MDA-N and in the assay on SR leukemia was above 100 µM throughout.
For `COC(=O)CCC(NC(=O)OC(C)(C)C)C(=O)NC(Cc1ccc([N+](=O)[O-])cc1)C(=O)NCC(=O)OCc1ccccc1` (stereo not given) (Boc-Glu(OMe)-[Phe(4-NO2)]-Gly-OBn; configuration not given here), the TGI in the assay with IGROV1 ovarian is above 100 µM; in the assay with LOX IMVI melanoma, above 86.3 µM; in the assay with OVCAR-5 ovarian, above 100 µM; with MDA-MB-231 breast, above 91.6 µM; in the assay with MDA-MB-435, above 100 µM; in the assay on NCI-H226 lung, above 100 µM. Moreover, the TGI with SN12C renal, with MOLT-4 leukemia, in the assay on MDA-N and in the assay with SR leukemia was above 100 µM throughout.
With `COc1ccc(N(C(=O)Nc2ccc(Cl)c(Cl)c2)c2ccccc2)cc1`, the TGI in the assay with IGROV1 ovarian, in the assay with LOX IMVI melanoma, in the assay on OVCAR-5 ovarian, with MDA-MB-231 breast, in the assay with MDA-MB-435 and with NCI-H226 lung was above 10 µM in each case. For the same molecule, the TGI in the assay on SN12C renal, in the assay on MOLT-4 leukemia, in the assay with MDA-N and with SR leukemia was above 10 µM in each case.
Turning to `CC1=NOC2(C1)/C(=N/O)CCC/C2=N\O` (stereo not given), the TGI in the assay with IGROV1 ovarian, with LOX IMVI melanoma, in the assay on OVCAR-5 ovarian, in the assay with MDA-MB-231 breast, with MDA-MB-435 and in the assay with NCI-H226 lung was above 100 µM each time. The TGI in the assay on SN12C renal, in the assay on MOLT-4 leukemia, in the assay with MDA-N and in the assay on SR leukemia was above 100 µM each time.
